According to publication PMC8300687, “A Fine-Tuned Lipophilicity/Hydrophilicity Ratio Governs Antibacterial Potency and Selectivity of Bifurcated Halogen Bond-Forming NBTIs” (Antibiotics, 2021):
≈ marks a conversion by molar mass, not a printed value. Read-outs that look alike come from different tables or passages of the source.

How the values were obtained:
[1] = system: S. pneumoniae (QA-10/02); experiment: MIC broth microdilution, S. pneumoniae; type: cell-based; details: Streptococcus pneumoniae
Procedure: (§1) Antimicrobial testing was carried out by the broth microdilution method in 96-well plate format following the Clinical and Laboratory Standards Institute (CLSI) guidelines and European Committee on Antimicrobial Susceptibility Testing (EUCAST) recommendations. Bacterial suspension of specific bacterial strain equivalent to 0.5 McFarland turbidity standard was diluted with cation-adjusted Mueller Hinton broth with TES (Thermo Fisher Diagnostic, Landsmeer, The Netherlands), to obtain a final inoculum of 10^5 CFU/mL. Compounds dissolved in DMSO and inoculum were mixed together and incubated for 18–20 h at 35 °C. Suspensions of Mycobacterium sp. were prepared into a tube of Middelbrook 7H9 broth supplemented with 5% OADC (Thermo Scientific, Trek Diagnostic Systems, West Sussex, UK) and incubated for at least 10 days. After incubation the minimal inhibitory concentration (MIC) values were determined by visual inspection as the lowest dilution of compounds showing no turbidity. Tetracycline was used as a positive control on every assay plate.

[2] = system: S. alachua RDK 030c (QA-1482/04); experiment: MIC broth microdilution, S. alachua; type: cell-based; details: Salmonella; read-out: MIC S. alachua RDK 030c (QA-1482/04)
Procedure: as §1

[3] = system: E. coli (QA-11.8); experiment: MIC broth microdilution, E. coli QA-11.8; type: cell-based; details: Escherichia coli, 20 h; read-out: MIC E. coli (QA-11.8)
Procedure: as §1

[4] = system: E. faecalis DRK 057 (ATCC 29212); experiment: MIC broth microdilution, E. faecalis; type: cell-based; details: Enterococcus faecalis, ATCC29212; read-out: MIC E. faecalis DRK 057 (ATCC 29212)
Procedure: as §1

[5] = target: T1, S. aureus Topo IV (Staphylococcus aureus, UniProt Q2FYS4); experiment: biochemical; details: for IC50: mean of two to four measurements, read-out: Topoisomerase IV IC50 S. aureus; for LE Topo IV S. aureus: LE = (1.37/HA) × pIC50
T1 construct: purchased Inspiralis (Norwich, UK)
T1 sequence (Q2FYS5 whole entry): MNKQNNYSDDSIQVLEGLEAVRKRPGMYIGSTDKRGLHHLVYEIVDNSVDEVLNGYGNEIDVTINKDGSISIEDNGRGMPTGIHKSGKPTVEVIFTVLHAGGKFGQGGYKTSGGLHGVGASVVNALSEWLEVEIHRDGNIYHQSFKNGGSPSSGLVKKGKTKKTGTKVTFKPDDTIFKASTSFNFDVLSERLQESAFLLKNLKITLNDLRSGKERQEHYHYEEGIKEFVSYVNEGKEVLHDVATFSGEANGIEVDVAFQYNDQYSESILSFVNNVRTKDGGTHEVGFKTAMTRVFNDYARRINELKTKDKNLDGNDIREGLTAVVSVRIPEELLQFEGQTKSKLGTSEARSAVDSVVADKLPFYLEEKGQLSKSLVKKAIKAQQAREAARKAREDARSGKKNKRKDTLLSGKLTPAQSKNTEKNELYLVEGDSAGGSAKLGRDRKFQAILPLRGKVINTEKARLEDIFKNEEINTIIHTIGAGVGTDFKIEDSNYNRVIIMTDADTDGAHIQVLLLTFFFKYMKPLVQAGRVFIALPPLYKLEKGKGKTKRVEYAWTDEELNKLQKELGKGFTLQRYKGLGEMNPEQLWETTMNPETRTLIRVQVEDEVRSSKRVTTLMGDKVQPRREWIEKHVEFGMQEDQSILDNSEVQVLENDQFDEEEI
T1 sequence (Q2FYS4 whole entry): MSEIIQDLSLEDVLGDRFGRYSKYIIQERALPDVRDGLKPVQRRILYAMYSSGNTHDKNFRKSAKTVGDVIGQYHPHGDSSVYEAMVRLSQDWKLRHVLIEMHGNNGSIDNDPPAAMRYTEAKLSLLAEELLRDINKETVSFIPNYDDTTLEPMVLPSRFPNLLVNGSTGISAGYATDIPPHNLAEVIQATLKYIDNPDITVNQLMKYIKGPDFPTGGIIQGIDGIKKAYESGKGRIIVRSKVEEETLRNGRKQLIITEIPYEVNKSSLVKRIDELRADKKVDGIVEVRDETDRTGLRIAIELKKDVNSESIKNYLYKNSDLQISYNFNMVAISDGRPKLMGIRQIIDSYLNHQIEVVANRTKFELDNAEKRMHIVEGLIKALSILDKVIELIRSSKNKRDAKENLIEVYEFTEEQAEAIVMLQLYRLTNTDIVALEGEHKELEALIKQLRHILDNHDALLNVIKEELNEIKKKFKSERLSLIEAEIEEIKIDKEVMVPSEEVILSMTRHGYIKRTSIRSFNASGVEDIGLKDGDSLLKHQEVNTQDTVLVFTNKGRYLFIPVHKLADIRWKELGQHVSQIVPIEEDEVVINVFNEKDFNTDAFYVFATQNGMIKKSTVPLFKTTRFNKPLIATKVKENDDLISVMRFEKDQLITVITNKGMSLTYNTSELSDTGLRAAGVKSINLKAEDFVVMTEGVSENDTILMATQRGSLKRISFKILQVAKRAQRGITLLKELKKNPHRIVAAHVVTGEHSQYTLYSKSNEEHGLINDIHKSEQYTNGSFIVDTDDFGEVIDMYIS
Procedure: (§2) A Topo IV Relaxation High Throughput Plate assay kit, purchased from Inspiralis (Norwich. UK) was used to determine IC50 values of compounds on S. aureus and E. coli. […] Biotinylated oligonucleotide in wash buffer was immobilized onto the wells, and the excess oligonucleotide was washed off with wash buffer and ultrapure water. 1.5 U of S. aureus or E. coli […] enzyme was incubated together with 0.75 μg of supercoiled pNO1 plasmid as a substrate in the presence of 3 μL inhibitor solution in 10% DMSO and 0.008% Tween 20 at 37 °C for 30 min in a final reaction volume of 30 μL in dilution buffer (50 mM Tris-HCl (pH 7.5), 1 mM DTT, 1 mM EDTA, 40% (w/v) glycerol for S. aureus and 40 mM HEPES, KOH (pH 7.6), 100 mM potassium glutamate, 1 mM DTT, 1 mM EDTA, and 40% (v/v) glycerol for E. coli). The reactions were stopped by adding the TF buffer (50 mM NaOAc (pH 4.7), 50 mM NaCl, and 50 mM MgCl2) to allow the triplex formation (biotin-oligonucleotide-plasmid) for additional 30 min. Afterward, the unbound plasmid was washed off using TF buffer, and the solution of Promega Diamond dye in T10 buffer (10 mM Tris-HCl (pH 8.0), 1 mM EDTA) was added. […] IC50 value represents the mean of two to four independent measurements.

[6] = target: T2, E. coli Topo IV (Escherichia coli, UniProt P0AFI2); experiment: Topo IV Relaxation High Throughput Plate assay, E. coli; type: biochemical; details: for LE Topo IV E. coli: LE = (1.37/HA) × pIC50
T2 construct: purchased Inspiralis (Norwich, UK)
T2 sequence (P0AFI2 whole entry): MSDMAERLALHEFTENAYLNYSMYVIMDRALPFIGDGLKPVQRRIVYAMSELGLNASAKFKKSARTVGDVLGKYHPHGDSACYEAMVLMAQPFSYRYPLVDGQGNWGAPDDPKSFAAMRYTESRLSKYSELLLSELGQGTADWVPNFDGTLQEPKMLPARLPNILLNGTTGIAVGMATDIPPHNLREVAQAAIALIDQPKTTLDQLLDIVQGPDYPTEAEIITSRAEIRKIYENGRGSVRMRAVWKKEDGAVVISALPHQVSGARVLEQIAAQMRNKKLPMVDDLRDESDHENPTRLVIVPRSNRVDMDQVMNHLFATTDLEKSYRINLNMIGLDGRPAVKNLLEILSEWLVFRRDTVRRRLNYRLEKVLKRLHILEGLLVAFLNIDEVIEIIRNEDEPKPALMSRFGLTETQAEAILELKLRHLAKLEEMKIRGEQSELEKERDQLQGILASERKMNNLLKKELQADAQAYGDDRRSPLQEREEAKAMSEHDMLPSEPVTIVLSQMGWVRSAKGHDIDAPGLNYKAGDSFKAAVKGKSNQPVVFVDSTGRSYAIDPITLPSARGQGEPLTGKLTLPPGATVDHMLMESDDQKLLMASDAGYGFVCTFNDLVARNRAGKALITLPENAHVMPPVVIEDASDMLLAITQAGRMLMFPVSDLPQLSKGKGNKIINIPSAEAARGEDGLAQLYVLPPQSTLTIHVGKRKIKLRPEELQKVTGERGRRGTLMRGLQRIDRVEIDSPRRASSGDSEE
T2 sequence (P20083 whole entry, further chain): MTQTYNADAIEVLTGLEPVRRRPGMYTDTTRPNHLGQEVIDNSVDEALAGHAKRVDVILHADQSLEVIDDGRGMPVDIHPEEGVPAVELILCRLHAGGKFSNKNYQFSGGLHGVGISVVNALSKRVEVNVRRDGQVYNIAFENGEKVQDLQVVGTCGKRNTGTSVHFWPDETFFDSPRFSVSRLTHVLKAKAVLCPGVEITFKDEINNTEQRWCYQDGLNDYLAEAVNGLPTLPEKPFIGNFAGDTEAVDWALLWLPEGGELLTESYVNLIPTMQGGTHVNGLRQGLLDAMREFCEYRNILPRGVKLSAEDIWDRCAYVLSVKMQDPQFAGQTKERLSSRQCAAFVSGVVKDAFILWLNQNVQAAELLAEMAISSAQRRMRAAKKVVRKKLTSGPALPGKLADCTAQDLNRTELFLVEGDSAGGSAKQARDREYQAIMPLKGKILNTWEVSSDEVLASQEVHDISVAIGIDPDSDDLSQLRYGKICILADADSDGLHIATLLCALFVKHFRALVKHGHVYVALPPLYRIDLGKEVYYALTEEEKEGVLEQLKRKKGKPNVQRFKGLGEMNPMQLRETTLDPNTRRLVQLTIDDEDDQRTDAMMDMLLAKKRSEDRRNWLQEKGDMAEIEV
Procedure: as §2

[7] = system: HUVEC; experiment: Metabolic activity assessment (cytotoxicity), HUVEC; type: cell-based; details: Homo sapiens, metabolic activity after 72 h treatment
Procedure: Cells of the HepG2 line (ATCC® HB-8065™) and HUVEC (ATCC® CRL-1730™) were cultured in Dulbecco’s Modified Eagle Medium (DMEM; Sigma-Aldrich, St. Louis, MO, USA) supplemented with 10% heat-deactivated FBS (Gibco, Grand Island, NE, USA), 2 mM L-glutamine, 100 U/mL penicillin, 100 μg/mL streptomycin (all from Sigma-Aldrich, St. Louis, MO, USA) in a humidified chamber at 37 °C and 5% CO2. The experiments were carried out on passages 7–9 for both cell lines. The tested compounds were dissolved in DMSO and further diluted in culture medium to a desired final concentration. Cells were seeded into 96-well plates at 8 × 10^4 cells/mL (100 μL/well) and incubated for 24 h to attach onto the wells. Cells were treated with 1 μM and 50 μM of each compound of interest or corresponding vehicle as control. […] The metabolic activity was assessed after 72 h treatment using the CellTiter 96 Aqueous One Solution Cell Proliferation Assay (Promega, Madison, WI, USA), in accordance with the manufacturer’s instructions. The absorbance was measured at 492 nm on an automated microplate reader BioTek Synergy HT (BioTek Instruments, Inc., Winooski, VT, USA). Data are presented as the percentage of metabolic activity of control cells stimulated with vehicle or as IC50 value (mean ± SD) from two independent experiments, each conducted in duplicate or triplicate. IC50 values were calculated by a non-linear regression model using Graph Pad Prism 7 software.

[8] = system: M. avium; experiment: MIC, M. avium; type: cell-based; details: Mycobacterium avium; read-out: MIC M. avium
Procedure: as §1

[9] = system: E. coli N43 (CGSC# 5583); experiment: MIC broth microdilution, E. coli N43; type: cell-based; details: Escherichia coli
Outline: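 Broth microdilution per CLSI/EUCAST: 0.5 McFarland suspensions diluted in cation-adjusted Mueller Hinton broth with TES to a final 10^5 CFU/mL, mixed with compounds in DMSO, incubated 18–20 h at 35 °C. Mycobacterium in Middelbrook 7H9 + 5% OADC, ≥10 days. MIC read visually as lowest dilution without turbidity.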

[10] = system: S. agalactiae RDK 047 (QA-990/02); experiment: MIC broth microdilution, S. agalactiae; type: cell-based; details: Streptococcus agalactiae; read-out: MIC S. agalactiae RDK 047 (QA-990/02)
Procedure: as §1

[11] = system: MRSA (QA-11.4); experiment: MIC broth microdilution, MRSA QA-11.4; type: cell-based, methicillin-resistant S. aureus; details: Staphylococcus aureus, 20 h, resistant to cefoxitin, read-out: MIC MRSA (QA-11.4)
Procedure: as §1

[12] = in vitro; details: for Papp at 4 h: PAMPA
Outline: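 Pre-coated three-layer PAMPA plate; donor in bottom well, pH 7.4 PBS acceptor on top, 4 h at 37 °C. Donor and acceptor quantified by isocratic HPLC peak areas, 100-fold diluted initial donor as external reference; permeability calculated from peak areas corrected for dilution and injection volume.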

[13] = read-out: E. coli N43 MIC in molar
[14] = read-out: MIC E. coli N43 (CGSC# 5583)

Structure (SMILES): C=CCn1cc(CNC2CCN(CCc3ccnc4ccc(OC)nc34)CC2)cn1 [Compound 10, N-((1-Allyl-1H-pyrazol-4-yl)methyl)-1-(2-(6-methoxy-1,5-naphthyridin-4-yl)ethyl)piperidin-4-amine]
- MIC [1]: 1 µg/mL (≈ 2.46 µM)
- MIC [2]: 128 µg/mL (≈ 315 µM)
- MIC [3]: 16 µg/mL (≈ 39.4 µM)
- MIC [4]: 8 µg/mL (≈ 19.7 µM)
- IC50 [5]: > 100 µM
- IC50 [6]: 0.28 ± 0.01 µM
- LE Topo IV E. coli [6]: 0.30
- IC50 [7]: > 50 µM
- MIC [8]: > 128 µg/mL
- MIC [9, 13]: 2.46 µM
- MIC [9, 14]: 1 µg/mL
- MIC [10]: 4 µg/mL (≈ 9.84 µM)
- MIC [11]: 4 µg/mL (≈ 9.84 µM)
- Papp at 4 h [12]: > 2.7 ×10⁻⁶ cm/s
- Papp at 4 h ([12]; pH 7.4): 4.1 ×10⁻⁶ cm/s

Structure (SMILES): COc1ccc2nccc(CCN3CCC(NCc4ccc(CO)cc4)CC3)c2n1 [Compound 16]
- MIC [1]: 2 µg/mL (≈ 4.92 µM)
- MIC [2]: > 128 µg/mL
- MIC [3]: 128 µg/mL (≈ 315 µM)
- MIC [4]: 8 µg/mL (≈ 19.7 µM)
- IC50 [5]: > 100 µM
- IC50 [6]: 1.21 ± 0.05 µM
- LE Topo IV E. coli [6]: 0.27
- IC50 ([7]; 72 h): > 50 µM
- MIC [8]: > 128 µg/mL
- MIC [9, 13]: 39.4 µM
- MIC [9, 14]: 16 µg/mL
- MIC [10]: 8 µg/mL (≈ 19.7 µM)
- MIC [11]: 8 µg/mL (≈ 19.7 µM)
- Papp at 4 h ([12]; pH 7.4): 1.5 ×10⁻⁶ cm/s
- PAMPA permeability classification [low/high] ([12]; relative to reference drugs): int erm ediat e

Structure (SMILES): COc1ccc2nccc(CCN3CCC(NCc4ccc(OC(F)F)c(OC)c4)CC3)c2n1 [Compound 19, N-(4-(Difluoromethoxy)-3-methoxybenzyl)-1-(2-(6-methoxy-1,5-naphthyridin-4-yl)ethyl)piperidin-4-amine]
- MIC [1]: 2 µg/mL (≈ 4.23 µM)
- MIC [2]: 128 µg/mL (≈ 271 µM)
- MIC [3]: 4 µg/mL (≈ 8.46 µM)
- MIC [4]: 16 µg/mL (≈ 33.9 µM)
- LE Topo IV S. aureus [5]: 0.18
- IC50 [5]: 29 ± 1.89 µM
- IC50 [6]: 0.1 ± 0.01 µM
- LE Topo IV E. coli [6]: 0.28
- IC50 ([7]; 72 h): 19.8 ± 2.58 µM
- MIC [8]: 128 µg/mL (≈ 271 µM)
- MIC [9, 13]: 2.12 µM
- MIC [9, 14]: 1 µg/mL
- MIC [10]: < 1 µg/mL
- MIC [11]: 2 µg/mL (≈ 4.23 µM)
- Papp at 4 h [12]: > 2.7 ×10⁻⁶ cm/s
- Papp at 4 h ([12]; pH 7.4): 9 ×10⁻⁶ cm/s

Structure (SMILES): COc1ccc2nccc(CCN3CCC(NCc4ccc(OC(F)F)c(O)c4)CC3)c2n1 [Compound 20, 2-(Difluoromethoxy)-5-((1-(2-(6-methoxy-1,5-naphthyridin-4-yl)ethyl)piperidin-4-ylamino)methyl)phenol]
- MIC [1]: 1 µg/mL (≈ 2.18 µM)
- MIC [2]: 64 µg/mL (≈ 140 µM)
- MIC [3]: 4 µg/mL (≈ 8.72 µM)
- MIC [4]: 4 µg/mL (≈ 8.72 µM)
- IC50 [5]: > 100 µM
- IC50 [6]: 0.06 µM
- LE Topo IV E. coli [6]: 0.30
- IC50 ([7]; 72 h): 29.8 ± 1.13 µM
- MIC [8]: 128 µg/mL (≈ 279 µM)
- MIC [9, 13]: 1.09 µM
- MIC [9, 14]: 0.5 µg/mL
- MIC [10]: 2 µg/mL (≈ 4.36 µM)
- MIC [11]: 2 µg/mL (≈ 4.36 µM)
- Papp at 4 h [12]: > 2.7 ×10⁻⁶ cm/s
- Papp at 4 h ([12]; pH 7.4): 3 ×10⁻⁶ cm/s

Structure (SMILES): COc1ccc2nccc(CCN3CCC(NCc4ccc(C(F)(F)F)nc4)CC3)c2n1 [Compound 21, 1-(2-(6-Methoxy-1,5-naphthyridin-4-yl)ethyl)-N-((6-(trifluoromethyl)pyridin-3-yl)methyl)piperidin-4-amine]
- MIC [1]: 1 µg/mL (≈ 2.24 µM)
- MIC [2]: 128 µg/mL (≈ 287 µM)
- MIC [3]: 8 µg/mL (≈ 18 µM)
- MIC [4]: 2 µg/mL (≈ 4.49 µM)
- LE Topo IV S. aureus [5]: 0.20
- IC50 [5]: 18.5 ± 1.32 µM
- IC50 [6]: > 100 µM
- IC50 [7]: > 50 µM
- MIC [8]: 4 µg/mL (≈ 8.98 µM)
- MIC [9, 13]: 2.25 µM
- MIC [9, 14]: 1 µg/mL
- MIC [10]: 4 µg/mL (≈ 8.98 µM)
- MIC [11]: 1 µg/mL (≈ 2.24 µM)
- Papp at 4 h [12]: > 2.7 ×10⁻⁶ cm/s
- Papp at 4 h ([12]; pH 7.4): 8.3 ×10⁻⁶ cm/s

Structure (SMILES): COc1ccc(CNC2CCN(CCc3ccnc4ccc(OC)nc34)CC2)cn1 [Compound 22, 1-(2-(6-Methoxy-1,5-naphthyridin-4-yl)ethyl)-N-((6-methoxypyridin-3-yl)methyl)piperidin-4-amine]
- MIC [1]: 1 µg/mL (≈ 2.45 µM)
- MIC [2]: 64 µg/mL (≈ 157 µM)
- MIC [3]: 8 µg/mL (≈ 19.6 µM)
- MIC [4]: 2 µg/mL (≈ 4.91 µM)
- IC50 [5]: > 100 µM
- IC50 [6]: > 100 µM
- IC50 [7]: > 50 µM
- MIC [8]: > 128 µg/mL
- MIC [9, 13]: 2.38 µM
- MIC [9, 14]: 1 µg/mL
- MIC [10]: 1 µg/mL (≈ 2.45 µM)
- MIC [11]: 2 µg/mL (≈ 4.91 µM)
- Papp at 4 h [12]: > 2.7 ×10⁻⁶ cm/s
- Papp at 4 h ([12]; pH 7.4): 8.2 ×10⁻⁶ cm/s
